Assay: Clobetasol plasma levels
Type: in vivo, human
Conditions: 45 subject plasma samples; after topical scalp treatment
Protocol: This study was conducted as a single center, randomized, investigator-masked and competitor comparison of 4 parallel groups involving Psoriasis and Scalp seborrheic dermatitis subjects. The aim of the trial was to evaluate the opthalmological irritation potential and the potential to suppress the HPA axis of Clobetasol Propionate Shampoo, 0.05%. During 4 weeks, psoriasis subjects had to treat their scalp once a day with Clobetasol Shampoo, 0.05% or with Dermoval/Temovate gel. Scalp seborrheic dermatitis subjects had to treat their scalp twice a week with Clobetasol Shampoo, 0.05% or on a day with Dermoval/Temovate gel.
Each subjects was submitted at each visit (each week during 4 weeks) to the following tests, ocular examination, HPA-axis function, local and general safety. First, opthalmological examination, measurement of intraocular pressure, detection of ocular subjective symptoms such as burning sensation, measurement of far and near visual acuity. Second, they were sampled for serum cortisol levels and were submitted to the Cosyntropin (Synacthene) stimulation assay. Cutaneous safety (skin atrophy using B-Scan ultra-sound and telangiectasis) and adverse events were also recorded. Systemic safety was also assessed by routine laboratory test and detection of Clobetasol Plasma levels, cutaneous safety, and DSS at the end of the study.

- amounts found in subject plasma samples: No detectable amounts
SMILES: CCC(=O)O[C@]1(C(=O)CCl)[C@@H](C)C[C@H]2[C@@H]3CCC4=CC(=O)C=C[C@]4(C)[C@@]3(F)[C@@H](O)C[C@@]21C [Clobatasol 17-propionate, clobetasol 17-propionate]

From US20080275014A1, “Clobetasol Propionate Shampoos for the Treatment of Seborrheic Dermatitis of the Scalp” (Galderma S.A., priority 2004, published 2008)
